Where two headings read alike, the source gives them in different places.
Assays:
[1] = Intravenous pharmacokinetics; assay type: in vivo; settings: rat, plasma; rats, 20 mg/kg, intravenous infusion over 0.5 hours; read-out: Free Cl (converted)
Procedure: Rats (n=3 per compound) were administered by a single infusion. Intravenous doses were infused over 0.5 hours via an indwelling femoral vein cannula. […] (˜0.3 mL) samples were collected from each rat at designated time points up to 24 hours. Blood samples were centrifuged within 5 min of collection at 12000 g for 5 min to obtain plasma. The plasma samples were stored at −80° C. until analyzed. Data were analyzed using WinNonlin. The doses of all compounds tested were 20 mg/kg.

[2] = target: CTX-M-14 (Escherichia coli, UniProt Q9L5C7); assay: Ki, nitrocefin cleavage by purified enzyme, CTX-M-14; assay type: biochemical; settings: nitrocefin reporter substrate; read-out: Ki (CTX-M-14, NCF)
How it was run: (§1)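 Readout: nitrocefin hydrolysis, A490 recorded every 10 sec over 10 min. Enzyme and inhibitor (varied concentrations) preincubated 10 min, RT, in reaction buffer before substrate addition.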

[3] = target: KPC-2 (Klebsiella pneumoniae, UniProt Q9F663); assay: Ki, nitrocefin cleavage by purified enzyme, KPC-2; assay type: biochemical; settings: nitrocefin reporter substrate; read-out: Ki (KPC-2, NCF)
How it was run: as §1

[4] = tested on: KP1009 (CTX-M-15); assay: Tigemonam potentiation (MPC@4), KP1009; assay type: cell-based; settings: BLI with tigemonam at 4 μg/mL
[5] = target: P99 (Enterobacter cloacae, UniProt P05364); assay: Ki, nitrocefin cleavage by purified enzyme, P99; assay type: biochemical; settings: nitrocefin reporter substrate; read-out: Ki (P99, NCF)
How it was run: as §1

[6] = tested on: KP1010 (SHV-12); assay: Tigemonam potentiation (MPC@4), KP1010; assay type: cell-based
[7] = tested on: ec308 (SHV-5); assay: Tigemonam potentiation (MPC@4), ec308; assay type: cell-based
[8] = tested on: EC1010 (CMY-6); assay: Tigemonam potentiation (MPC@4), EC1010; assay type: cell-based; settings: BLI with tigemonam at 4 μg/mL
[9] = tested on: KP1004 (KPC-2); assay: Biapenem potentiation (MPC@1), KP1004; settings: BLI with biapenem at 1 μg/mL
[10] = tested on: KP1005 (CTX-M-14); assay: Tigemonam potentiation (MPC@4), KP1005; assay type: cell-based; settings: BLI with tigemonam at 4 μg/mL
[11] = target: SHV-12 (Klebsiella pneumoniae, UniProt P0AD64, E235K/G234S/L31Q); assay: Ki, nitrocefin cleavage by purified enzyme, SHV-12; assay type: biochemical; settings: nitrocefin reporter substrate; read-out: Ki (SHV-12, NCF)
How it was run: as §1

[12] = Monomer content of pH adjusted aqueous solutions (LC-UV); assay type: physicochemical; settings: pH adjusted to 7.6 to 8, LC-UV; for % Monomer in 1 mg/mL salt solution: 1 mg/mL aqueous salt solution; for % Monomer in 10 mg/mL salt solution: 10 mg/mL aqueous salt solution; for % Monomer in 100 mg/mL salt solution: 100 mg/mL aqueous salt solution
How it was run: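 Aqueous solutions at 1.00, 10.0 or 100 mg/mL (active fraction) brought to pH 7.6–8 with acid or base, compound fully dissolved. Injected within half an hour of preparation onto C18 reversed-phase LC (0.1% TFA water / 0.085% TFA methanol gradient); UV detection at 220, 254 and 300 nm.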

[13] = tested on: KP1086 (OXA-48); assay: Biapenem potentiation (MPC@1), KP1086; settings: BLI with biapenem at 1 μg/mL
[14] = tested on: ECL1002; assay: Tigemonam potentiation (MPC@4), ECL1002; assay type: cell-based; settings: BLI with tigemonam at 4 μg/mL
[15] = tested on: ec302 (TEM-10); assay: Aztreonam potentiation (MPC@4), ec302; assay type: cell-based; settings: BLI with aztreonam at 4 μg/mL
[16] = tested on: ECL1002; assay: Aztreonam potentiation (MPC@4), ECL1002; assay type: cell-based; settings: BLI with aztreonam at 4 μg/mL
[17] = tested on: ec302 (TEM-10); assay: Tigemonam potentiation (MPC@4), ec302; assay type: cell-based
[18] = target: OXA-48 (Klebsiella pneumoniae, UniProt Q6XEC0); assay: Ki, nitrocefin cleavage by purified enzyme, OXA-48; assay type: biochemical; settings: nitrocefin reporter substrate; read-out: Ki (OXA-48, NCF)
How it was run: as §1

[19] = tested on: EC1010 (CMY-6); assay: organism not typed; assay type: cell-based
[20] = target: Pa AmpC (Pseudomonas aeruginosa, UniProt P24735); assay: Ki, nitrocefin cleavage by purified enzyme, Pa AmpC; assay type: biochemical; settings: nitrocefin reporter substrate; read-out: Ki (Pa AmpC, NCF)
How it was run: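 Ki derived spectrophotometrically: after adding nitrocefin, absorbance at 490 nm recorded every 10 sec over 10 min. Each purified enzyme had first been incubated with inhibitor at several concentrations for 10 min at room temperature.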

P99, sequence (P05364 21-381): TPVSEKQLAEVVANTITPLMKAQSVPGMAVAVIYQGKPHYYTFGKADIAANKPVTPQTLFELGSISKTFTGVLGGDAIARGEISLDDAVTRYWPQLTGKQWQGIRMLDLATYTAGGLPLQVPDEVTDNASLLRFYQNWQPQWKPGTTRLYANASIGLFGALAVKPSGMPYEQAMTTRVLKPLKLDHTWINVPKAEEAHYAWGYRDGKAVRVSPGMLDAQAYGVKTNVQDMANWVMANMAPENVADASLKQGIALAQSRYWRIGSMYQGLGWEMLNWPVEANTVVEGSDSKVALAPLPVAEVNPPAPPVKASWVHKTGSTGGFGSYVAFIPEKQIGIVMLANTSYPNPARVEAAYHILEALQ
KPC-2, sequence (Q9F663 25-293, looked up, species assumed): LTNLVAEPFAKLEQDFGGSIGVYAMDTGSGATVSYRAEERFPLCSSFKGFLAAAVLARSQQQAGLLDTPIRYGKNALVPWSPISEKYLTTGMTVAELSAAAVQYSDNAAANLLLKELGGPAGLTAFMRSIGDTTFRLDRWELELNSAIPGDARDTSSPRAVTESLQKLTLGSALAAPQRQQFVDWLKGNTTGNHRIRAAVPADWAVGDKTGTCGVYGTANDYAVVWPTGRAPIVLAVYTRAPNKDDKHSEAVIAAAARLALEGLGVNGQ
CTX-M-14, sequence (Q9L5C7 29-291): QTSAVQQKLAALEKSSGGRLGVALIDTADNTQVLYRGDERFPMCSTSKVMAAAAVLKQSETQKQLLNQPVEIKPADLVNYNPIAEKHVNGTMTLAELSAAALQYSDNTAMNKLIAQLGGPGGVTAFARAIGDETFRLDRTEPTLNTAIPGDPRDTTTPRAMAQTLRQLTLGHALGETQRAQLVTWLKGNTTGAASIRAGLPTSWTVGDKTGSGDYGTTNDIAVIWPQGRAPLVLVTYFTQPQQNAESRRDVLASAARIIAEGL
OXA-48, sequence (Q6XEC0 23-265, looked up, species assumed): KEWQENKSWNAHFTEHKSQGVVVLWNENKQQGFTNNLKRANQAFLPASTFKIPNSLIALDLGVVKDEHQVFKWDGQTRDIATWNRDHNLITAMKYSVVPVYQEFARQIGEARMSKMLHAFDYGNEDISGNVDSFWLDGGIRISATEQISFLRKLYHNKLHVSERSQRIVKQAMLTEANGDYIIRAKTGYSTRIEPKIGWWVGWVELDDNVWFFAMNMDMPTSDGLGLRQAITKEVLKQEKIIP
SHV-12, sequence (P0AD64 22-286 L31Q/G234S/E235K): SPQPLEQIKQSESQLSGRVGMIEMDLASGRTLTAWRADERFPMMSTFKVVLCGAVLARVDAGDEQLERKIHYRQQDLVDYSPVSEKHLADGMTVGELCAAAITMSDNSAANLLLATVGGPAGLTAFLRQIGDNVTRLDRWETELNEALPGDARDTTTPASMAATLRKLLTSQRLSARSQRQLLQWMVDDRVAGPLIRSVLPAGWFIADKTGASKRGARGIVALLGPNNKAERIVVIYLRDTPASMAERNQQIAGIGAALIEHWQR
Pa AmpC, sequence (P24735 27-397): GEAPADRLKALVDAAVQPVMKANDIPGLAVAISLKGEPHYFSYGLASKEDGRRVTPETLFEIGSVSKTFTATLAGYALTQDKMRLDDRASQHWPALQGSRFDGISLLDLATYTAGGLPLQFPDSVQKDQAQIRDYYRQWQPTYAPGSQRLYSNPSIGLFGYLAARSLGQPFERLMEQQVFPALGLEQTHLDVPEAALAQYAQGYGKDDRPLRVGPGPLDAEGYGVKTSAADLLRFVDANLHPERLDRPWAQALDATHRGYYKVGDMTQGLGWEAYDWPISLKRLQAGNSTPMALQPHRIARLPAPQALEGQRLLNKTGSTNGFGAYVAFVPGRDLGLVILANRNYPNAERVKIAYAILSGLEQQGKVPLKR

CSCC(=O)N[C@H]1Cc2ccc(F)c(C(=O)O)c2OB1O [Compound 1, (R)-7-fluoro-2-hydroxy-3-(2-(methylthio)acetamido)-3,4-dihydro-2H-benzo[e][1,2]oxaborinine-8-carboxylic acid]
clearance [1]: 14.2 mL/min/kg
Ki [2]: < 1 nM
Ki [3]: > 10 nM
TIG MPC4 CTX-M-15 KP1009 [4]: X (MIC of less than 1 μg/mL)
Ki [5]: > 10 nM
TIG MPC4 SHV-12 KP1010 ([6]; BLI with tigemonam at 4 μg/mL): X (MIC of less than 1 μg/mL)
TIG MPC4 SHV-5 ec308 ([7]; BLI with tigemonam at 4 μg/mL): X (MIC of less than 1 μg/mL)
TIG MPC4 CMY-6 EC1010 [8]: X (MIC of less than 1 μg/mL)
BPM MPC1 KP1004 KPC-2 [9]: X (MIC of less than 1 μg/mL)
TIG MPC4 CTX-M-14 KP1005 [10]: X (MIC of less than 1 μg/mL)
Ki [11]: < 1 nM
% Monomer in 1 mg/mL salt solution [12]: 98.0%
% Monomer in 10 mg/mL salt solution [12]: 97.5%
% Monomer in 100 mg/mL salt solution [12]: 96.4%
BPM MPC1 OXA-48 KP1086 [13]: Y (MIC of 1 μg/mL to 10 μg/mL)
TIG MPC4 ECL1002 [14]: X (MIC of less than 1 μg/mL)
AZT MPC4 TEM-10 ec302 [15]: Y (MIC of 1 μg/mL to 10 μg/mL)
AZT MPC4 ECL1002 [16]: Y (MIC of 1 μg/mL to 10 μg/mL)
TIG MPC4 TEM-10 ec302 ([17]; BLI with tigemonam at 4 μg/mL): Y (MIC of 1 μg/mL to 10 μg/mL)
Ki [18]: > 10 nM

O=C(Cc1cccs1)N[C@H]1Cc2ccc(F)c(C(=O)O)c2OB1O [Compound 30, (R)-7-fluoro-2-hydroxy-3-(2-(thiophen-2-yl)acetamido)-3,4-dihydro-2H-benzo[e][1,2]oxaborinine-8-carboxylic acid]
AZT MPC4 CMY-6 EC1010 [19]: Y (key: X: MIC of less than 1 ng/mL; Y: MIC of 1 μg/mL to 10 μg/mL; Z: MIC of greater than 10 μg/mL)
clearance [1]: 23 mL/min/kg
Ki [2]: < 1 nM
Ki [3]: 1 to 10 nM
TIG MPC4 CTX-M-15 KP1009 [4]: X (MIC of less than 1 μg/mL)
Ki [5]: 1 to 10 nM
TIG MPC4 SHV-12 KP1010 [6]: X (key: X: MIC of less than 1 μg/mL; Y: MIC of 1 μg/mL to 10 μg/mL; Z: MIC of greater than 10 μg/mL)
TIG MPC4 SHV-5 ec308 [7]: X (key: X: MIC of less than 1 μg/mL; Y: MIC of 1 μg/mL to 10 μg/mL; Z: MIC of greater than 10 μg/mL)
TIG MPC4 CMY-6 EC1010 [8]: X (MIC of less than 1 μg/mL)
BPM MPC1 KP1004 KPC-2 [9]: X (MIC of less than 1 μg/mL)
TIG MPC4 CTX-M-14 KP1005 [10]: Y (MIC of 1 μg/mL to 10 μg/mL)
Ki [11]: < 1 nM
% Monomer in 1 mg/mL salt solution [12]: 94.6%
% Monomer in 10 mg/mL salt solution [12]: 93.5%
% Monomer in 100 mg/mL salt solution [12]: 87.6%
Ki [20]: 1 to 10 nM
BPM MPC1 OXA-48 KP1086 [13]: Y (MIC of 1 μg/mL to 10 μg/mL)
TIG MPC4 ECL1002 [14]: X (MIC of less than 1 μg/mL)
AZT MPC4 TEM-10 ec302 [15]: Y (MIC of 1 μg/mL to 10 μg/mL)
AZT MPC4 ECL1002 [16]: Y (MIC of 1 μg/mL to 10 μg/mL)
TIG MPC4 TEM-10 ec302 [17]: Y (key: X: MIC of less than 1 ng/mL; Y: MIC of 1 μg/mL to 10 μg/mL; Z: MIC of greater than 10 μg/mL)
Ki [18]: < 1 nM

Source: patent US9963467B2, “Boronic acid derivatives and therapeutic uses thereof” (Rempex Pharmaceuticals, Inc., priority 2014, dated 2018)
